From ChEMBL document CHEMBL5032529, “Synthesis and evaluation of tetrahydroisoquinoline derivatives against Trypanosoma brucei rhodesiense” (Eur J Med Chem, 2021)

Assays:
Vero = assay: Cytotoxicity against African green monkey Vero cells assessed as reduction in cell viability measured after 72 hrs by SRB assay; format: cell-based; details: Chlorocebus sabaeus
[1] = test system: Trypanosoma brucei rhodesiense; assay: Antitrypanosomal activity against Trypanosoma brucei rhodesiense STIB900 assessed as parasite growth inhibition measured after 72 hrs by alamar blue dye based spectrofluorimetric analysis; format: functional, organism-based; details: STIB900, 72 h
[2] = Selectivity index, ratio of IC50 for cytotoxicity against African green monkey Vero cells to IC50 for antitrypanosomal activity against Trypanosoma brucei rhodesiense STI B900; format: toxicity, cell-based; details: read-out: Ratio IC50

Row | SMILES | IC50 (Vero) | IC50 [1] | selectivity ratio [2]
1 | Oc1cccc2c1CNCC2O (stereo not given) | > 100 µM | > 100 µM | –
2 | CN1Cc2ccc(OCCCn3ccnc3[N+](=O)[O-])cc2[C@@H](O)C1 | > 50 µM | 21.7 µM | > 2.3
3 | CN1Cc2ccc(OCc3ccc(Oc4ccc(F)cc4)cc3)cc2[C@@H](O)C1 | 5.6 µM | 2.7 µM | 2.1
4 | COc1cccc2c1CN(C)C[C@@H]2O | > 100 µM | > 100 µM | –
5 | CCN1Cc2ccc(O)cc2C(O)C1 (stereo not given) | > 100 µM | > 100 µM | –
6 | COc1ccc(COc2ccc3c(c2)[C@@H](O)CN(C)C3)cc1 | > 50 µM | 17.5 µM | > 2.9
7 | CN1Cc2ccc(OCc3ccccc3)cc2[C@@H](O)C1 | > 100 µM | 25.6 µM | > 3.9
8 | CN1Cc2ccc(OCc3ccc(Oc4ccccc4)cc3)cc2[C@@H](O)C1 | 3.4 µM | 2.7 µM | 1.3
9 | Cc1ccccc1COc1ccc2c(c1)[C@@H](O)CN(C)C2 | > 100 µM | 20.7 µM | > 4.8
10 | Oc1ccc2c(c1)C(O)CNC2 (stereo not given) | > 100 µM | > 100 µM | –
11 | CN1Cc2ccc(OCCC3CCCCC3)cc2[C@@H](O)C1 | > 50 µM | 2.5 µM | > 20
12 | CN(C)CCOc1ccc2c(c1)[C@@H](O)CN(C)C2 | > 50 µM | > 50 µM | –
13 | CN1Cc2ccc(OCc3ccc([N+](=O)[O-])cc3)cc2[C@@H](O)C1 | > 50 µM | 16.9 µM | > 3
14 | CN1Cc2ccc(OCCCN3CCOCC3)cc2[C@@H](O)C1 | > 50 µM | 27.6 µM | > 1.8
15 | CCCCCCCCCCCCOc1ccc2c(c1)[C@@H](O)CN(C)C2 | 18.3 µM | 2.4 µM | 7.6
16 | CN1Cc2ccc(O)cc2[C@@H](OCc2ccccc2)C1 | > 50 µM | > 50 µM | –
17 | CN1Cc2ccc(OCCCc3ccccc3)cc2[C@@H](O)C1 | > 50 µM | 18.7 µM | > 2.7
18 | CN1Cc2ccc(OCCc3ccccc3)cc2[C@@H](O)C1 | > 50 µM | 17.9 µM | > 2.8

Row | SMILES | IC50 (Vero) | IC50 [1] | selectivity ratio [2]
19 | CN1Cc2ccc(OCC3CCNCC3)cc2[C@@H](O)C1 | > 100 µM | > 100 µM | –
20 | CN1Cc2ccc(OCCCn3cnc([N+](=O)[O-])c3)cc2[C@@H](O)C1 | > 50 µM | > 50 µM | –
21 | CN1Cc2ccc(OCCCN3CCNCC3)cc2[C@@H](O)C1 | > 100 µM | > 100 µM | –
22 | CCCN1Cc2ccc(O)cc2C(O)C1 (stereo not given) | > 100 µM | > 100 µM | –
23 | CN1Cc2c(O)cccc2[C@@H](O)C1 | > 100 µM | > 100 µM | –
24 | CCCCCCCCCCCC1c2ccc(O)cc2[C@@H](O)CN1C (stereo not given in full) | – | 0.39 µM | –
25 | OC1CCCc2ccc(OCc3ccc(-c4ccccc4)cc3)cc21 (stereo not given) | > 100 µM | > 100 µM | –
26 | COCCOCOc1ccc2c(c1)[C@@H](O)CN(C)C2 | > 50 µM | > 50 µM | –
27 | COc1ccc2c(c1)[C@@H](O)CN(C)C2 | > 100 µM | > 100 µM | –
28 | Oc1ccc2c(c1)C(O)CCC2 (stereo not given) | > 100 µM | > 100 µM | –
29 | Cc1cccc(COc2ccc3c(c2)[C@@H](O)CN(C)C3)c1 | > 50 µM | 20.3 µM | > 2.5
30 | CN1Cc2ccc(OCc3cccnc3)cc2[C@@H](O)C1 | > 50 µM | > 50 µM | –
31 | CN1Cc2ccc(OCc3ccc(-c4ccccc4)cc3)cc2[C@@H](O)C1 | 23 µM | 2.9 µM | 7.9
32 | CN1Cc2ccc(OCC3CCCCC3)cc2[C@@H](O)C1 | 65.6 µM | 2.8 µM | 23.4
33 | CN1Cc2ccc(OCCOc3ccccc3)cc2[C@@H](O)C1 | > 100 µM | 17.9 µM | > 5.6
34 | CN1CCc2cc(O)ccc2C1 | > 100 µM | > 100 µM | –
35 | Cc1c2ccncc2c(C)c2c1[nH]c1ccccc12 [ELLIPTECINE] | 2.4 µM | – | –
36 | N=C(N)c1ccc(OCCCCCOc2ccc(C(=N)N)cc2)cc1 [PENTAMIDINE] | – | 0.00707 µM | –
